Assay results as given in publication PMC5814047, “Peptidic inhibitors of insulin-degrading enzyme with potential for dermatological applications discovered via phage display” (PLoS ONE, 2018).
Several values for one entry are separate records, joined by “and”; a condition that tells them apart may be missing. Equal values may be shown once. Bridge positions count the residues as written; N and C are the ends. Peptide text beside a SMILES is read from it.

Tests used:
[1] = test system: hydroxyproline secreted by primary murine skin fibroblasts; assay: Hydroxyproline secretion into medium; type: cell-based
Procedure: (§1) Insulin promotes wound healing and overall skin health by affecting a number of processes, including cell proliferation, cell migration, and the production and secretion of ECM components, particularly type I collagen. We therefore assessed the ability of P12-3A to influence these processes in cultured skin fibroblasts and keratinocytes. To that end, primary mouse skin fibroblasts were grown for 4 d in multiple concentrations of insulin in the presence or absence of P12-3A, and insulin concentration over time was monitored by ELISA. […] Finally, the effects of P12-3A on collagen production in were assessed at both the transcriptional and the posttranslational level in confluent monolayers of fibroblasts. After 4 d of treatment with P12-3A (100 μM), mRNA levels for the major form of collagen, alpha-1 type I collagen (COL1A1), were quantified by RT-PCR and found to be increased to ~2.6 times the levels of untreated cells (Fig 4C). To assess overall levels of collagen production and secretion, we quantified levels of hydroxyproline, a modified amino acid present almost exclusively in collagen proteins. […] Western blotting also confirmed that mature, cell-associated collagen levels were increased in the presence of P12-3A (Fig 4E).
(§2) Fig 4 Effects of P12-3A on cultured skin cells. A, Insulin concentrations as a function of time in logarithmically growing primary murine skin fibroblasts in the absence or presence of P12-3A (100 μM). […] Data are mean ± SEM of 4 independent replications. *P<0.05, **P<0.01. B, Proliferation of cells in the absence or presence of P12-3A (100 μM). Data are mean ± SEM of 6 independent replications. […] C,D,E, P12-3A (100 μM) potentiates insulin-induced collagen production in skin fibroblasts. Collagen production was assessed by COL1A1 mRNA levels (C), levels of hydroxyproline secreted into the medium (D), and cell-associated mature alpha-1 type I collagen levels detected by Western blotting (E). Data are mean ± SD of 4 independent replications. *P<0.05, **P<0.01. […] Migration of HaCaT cells 48 h after induction of a scratch wound in the presence of the indicated quantities of insulin and/or P12-3A (100 μM). Data are mean ± SEM of 6 independent replications. *P<0.05, **P<0.01.
For quantitation of hydroxyproline secretion by primary murine skin fibroblasts, cells (1 x 10^5/well) were plated in 24-well plates DMEM supplemented with 10% FBS, 2mM glutamine, penicillin, streptomycin and 100 nM insulin, in the absence or presence of 100 μM P12-3A. After incubation for 4 days, the conditioned medium was removed, centrifuged at 1000 x g for 10 min to remove cellular debris, and hydroxyproline levels were quantified using the Hydroxyproline Assay Kit according to manufacturer’s recommendations (Sigma-Aldrich, St. Louis, MO, USA).

[2] = test system: alpha-1 type I collagen in primary murine skin fibroblasts; assay: Western blotting of cell-associated alpha-1 type I collagen; type: cell-based; conditions: for COL1A1 Adj. Band Vol. normalized to control on each gel: control = Day 0 COL1A1+DMSO sample; for Normalized COL1A1/GAPDH ratio, Mean: mean of 4 replicates; for COL1A1/GAPDH ratio normalized to Day 0, DMSO only control, Mean: mean of 4 replicates (Figure 4E)
Procedure: as §1, §2
Protein was collected using the M-Per Mammalian Extraction Reagent and the concentration was quantified using the Pierce™BCA Protein Assay Kit according to manufacturer’s recommendations (Thermo Fisher Scientific, Waltham, MA, USA). Protein (30 μg/well) was separated SDS-PAGE under reducing conditions using Novex™ 10% polyacrylamide tris-glycine mini gels and transferred to nitrocellulose membranes as described. Briefly, membranes were blocked in 5% non-fat milk in tris-buffered saline supplemented with 0.2% Tween-20 (TBST), cut into segments and incubated for 1 h at room temperature with anti-alpha-1 type I collagen (1:5000) and anti-GAPDH (1:10,000) antibodies, washed extensively in TBST, then probed with anti-rabbit (1:20,000) or anti-goat (1:50,000) secondary antibodies, respectively, and detected by enhanced chemoluminescence using SuperSignal West Pico Substrate. Protein expression, normalized to GAPDH levels, was quantified using the band analysis tools of ImageLab software, version 4.1 (Bio-Rad Laboratories, Inc., Hercules, CA, USA).

[3] = test system: multiple peptidases of different protease classes; assay: Activity on additional proteases, FAßB degradation assay; type: biochemical; parameters: concentration or dose not given beside the values; conditions: for % activity relative to DMSO-only and no-enzyme controls, Mean: N 8; for % activity relative to DMSO-only and no-enzyme controls, single runs: each run mean of quadruplicates
Procedure: IDE activity was quantified by monitoring the degradation of Mca-[…](Dnp) (FRET1, 5 μM), fluoresceinated and biotinylated amyloid ß-protein (FAßB; 500 nM) or recombinant human insulin (50 nM) in PBS supplemented with 0.05% BSA. FRET1 degradation was measured by changes in fluorescence (λex = 340 nm, λem = 420 nm); FAßB degradation was monitored by fluorescence polarization (λex = 488 nm, λem = 525 nm), as described; and insulin degradation was quantified by ELISA. In vitro activity assays incorporated recombinant human IDE (1 nM) purified from bacteria. For quantitation of insulin degradation in primary murine skin fibroblasts, cells (1 x 10^5/well) were plated in 96-well plates and maintained in DMEM supplemented with 10% fetal bovine serum (FBS), 2mM glutamine, penicillin and streptomycin. After addition of insulin (10 nM or 100 nM), samples of conditioned medium were removed daily and quickly frozen, then insulin levels were quantified in parallel by ELISA according to manufacturer’s recommendations (Crystal Chem, Downers Grove, IL, USA). Assessment of the activity of P12-3A against a variety of matrix-metalloproteases was conducted using the Matrix Metalloproteinase (MMP) Inhibitor Profiling Kit, Fluorometric RED (Enzo Life Sciences, Inc., Farmingdale, NY, USA) according to manufacturer’s recommendations using the broad-spectrum MMP inhibitor, NNGH, as a positive control.
Supplementary file pone.0193101.s004.tif: S4 Fig Selectivity of P12-3A for IDE vis-à-vis other proteases. Activity of P12-3A (100 μM) against (A) multiple matrix-metalloproteases (MMPs) and (B) multiple peptidases of different protease classes. […] Data are mean ± SD, n = 8–16 per group. P<0.05 by 2-tailed Student’s t-test. […] See Materials and Methods for details. NEP, neprilysin; mCatD, murine cathepsin D; hCatD, human cathepsin D. (TIF) Click here for additional data file.

## CC(C)C[C@H](NC(=O)[C@H](CO)NC(=O)[C@@H](N)CCC(N)=O)C(=O)N1CCC[C@H]1C(=O)N[C@@H](Cc1c[nH]c2ccccc12)C(=O)N[C@H]1CSSC[C@@H](C(=O)N[C@H](C(=O)N[C@H](C(N)=O)[C@@H](C)O)C(C)C)NC(=O)[C@H](Cc2c[nH]cn2)NC(=O)[C@@H]2CCCN2C(=O)[C@H](Cc2ccc(O)cc2)NC1=O [P12-3A] (H-QSLPWCYPHCVT-NH2; disulfide 6-10 (inferred))
[1]; 100 μM P12-3A, 100 nM insulin, 4 days
  hydroxyproline levels secreted into the medium: ~ 4.6 times that secreted by untreated cells
[1]; from standard curve, N 4
  Hydroxyproline, Mean: 0.989 ug/well
[1]; from standard curve, individual replicates
  Hydroxyproline: 0.7793 ug/well and 1.026 ug/well and 0.6312 ug/well and 1.309 ug/well
[1]; normalized to control mean (1.000), N 4
  Hydroxyproline, Normalized, Mean: 4.585
[1]; normalized to control mean (1.000), individual replicates
  Hydroxyproline, Normalized: 3.613 and 4.758 and 2.926 and 6.069
[1]; raw OD560, individual replicates
  Hydroxyproline quantification, OD560: 0.849 and 1.1137 and 0.6903 and 1.4165
[2]; Day 0, individual replicates
  COL1A1/GAPDH ratio normalized to Day 0, DMSO only control: 102.562 and 78.683 and 108.954 and 116.015
  Normalized COL1A1/GAPDH ratio from same sample: 1.131 (2×) and 0.868 (2×) and 1.202 (2×) and 1.28 and 1.280
  COL1A1 Adj. Band Vol. normalized to control on each gel: 1.022 and 0.7932 and 0.9786 and 1.091
[2]; Day 0
  Normalized COL1A1/GAPDH ratio, Mean: 1.120
  COL1A1/GAPDH ratio normalized to Day 0, DMSO only control, Mean: 102
[2]; Day 4, individual replicates
  Normalized COL1A1/GAPDH ratio from same sample: 4.269 (2×) and 4.793 (2×) and 3.93 and 3.135 (2×) and 3.930
  COL1A1 Adj. Band Vol. normalized to control on each gel: 3.82 and 4.41 and 3.218 and 2.717
[2]; Day 4
  Normalized COL1A1/GAPDH ratio, Mean: 4.032
  COL1A1/GAPDH ratio normalized to Day 0, DMSO only control, Mean: 345
[2]; in the presence of P12-3A (100 μM)
  mature, cell-associated collagen levels: increased
[3]; Plasmin
  % activity relative to DMSO-only and no-enzyme controls, Mean: 102.2%
  % activity relative to DMSO-only and no-enzyme controls, single runs: 81.4012% and 90.4633% and 101.45% and 148.471% and 93.7572% and 91.0067% and 95.3568% and 115.381%
[3]; Trypsin
  % activity relative to DMSO-only and no-enzyme controls, Mean: 97.0%
  % activity relative to DMSO-only and no-enzyme controls, single runs: 89.0897% and 97.7425% and 98.0394% and 101.611% and 90.6127% and 100.837% and 98.0681% and 99.896%
